Read-outs that look alike come from different tables or passages of the source. Where a SMILES comes first, the peptide text is derived from it. [ ]: non-standard residue; d: D form. The star is where a group is joined. Palmitoyl = CCCCCCCCCCCCCCCC(=O)*; hPhe = N[C@@H](CCc1ccccc1)C(=O)O; β3hK = NCCCC[C@H](N)CC(=O)O
How the values were obtained:
human Trypsin = human Trypsin (Homo sapiens, UniProt P07477); assay: Selectivity screening, human serine protease trypsin; assay type: biochemical; settings: read-out: inhibition of human Trypsin
Method: By catalytic activity of the protease, the cleaved substrate results in increased fluorescence that can be monitored using a BMG Labtech Fluostar OPTIMA Microtiter fluorescence plate reader (excitation wavelength of 320 nm and a monitored emission wavelength of 405 nm). Dilutions were made starting from 10 mM stock solutions in DMSO and final concentrations were measured in triplicates. The inhibitors were preincubated for 15 min with DENV protease (100 nM) in the assay buffer (50 mM Tris-HCl pH 9.0, ethylene glycol (10% v/v), and 0.0016% Brij 58). The enzymatic reaction was initiated by the addition of the FRET substrate (final concentration 50 μM) to obtain a final assay volume of 100 μL per well. The enzymatic activity was monitored for 15 min and determined as a slope of relative fluorescence units per second (RFU/s) for each concentration. The mean of the triplicates were plotted against the corresponding concentration in CDDVault to determine the IC50-values. Analogous procedures were used to determine the inhibitory potency on WNV (Kühl et al., J. Med. Chem. 2020, 63 (15): 8179-8197) and ZIKA protease (Nitsche et al., ACS Med. Chem. Lett. 2019 Feb. 14; 10 (2): 168-174). For selectivity screening of active candidates, similar biochemical assays with human serine proteases trypsin (Weigel et al., J. Med. Chem. 2015, 58 (19), 7719-7733.) and/or thrombin (Nitsche et al., J. Med. Chem. 2013, 56 (21), 8389-8403) were used.

ZIKA protease = target: T1, ZIKA protease (Zika virus, UniProt Q32ZE1); assay: biochemical; settings: for inhibition at 1 µM / inhibition at 50 µM: read-out: inhibition of ZIKV
T1 construct: a trypsin-like serine protease domain in the N-terminal region of the flaviviral NS3 proteins

WNV protease [1] = target: T2, WNV protease (West Nile virus, UniProt P06935); assay: WNV protease assay (analogous procedure); assay type: biochemical; settings: at 50 μM
T2 construct: a trypsin-like serine protease domain in the N-terminal region of the flaviviral NS3 proteins
Outline: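 Adapted from the DENV protease assay: inhibitors preincubated 15 min with protease (DENV at 100 nM) in 50 mM Tris-HCl pH 9.0, 10% ethylene glycol, 0.0016% Brij 58, then FRET substrate (50 μM final) added.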

DENV protease = target: T3, DENV protease (Dengue virus type 2, UniProt P29990); assay: biochemical; settings: read-out: inhibition of DENV
T3 construct: The virus-encoded dengue protease comprises the amino-terminal 180 amino acids of NS3 (NS3pro) of the polyprotein
Outline: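 DENV protease (100 nM) was pre-incubated 15 min with inhibitors in 50 mM Tris-HCl pH 9.0, 10% ethylene glycol, 0.0016% Brij 58. FRET substrate (50 μM final) started the reaction, monitored 15 min as RFU/s slope. IC50 came from triplicate means versus concentration.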

WNV protease [2] = target: T2, WNV protease; assay: WNV protease assay (analogous procedure); assay type: biochemical; settings: read-out: IC50 for WNNV
human Thrombin = human Thrombin (Homo sapiens, UniProt P00734); assay: Selectivity screening, human serine protease thrombin; assay type: biochemical; settings: read-out: inhibition of human Thrombin

T1 sequence (Q32ZE1 1499-1676): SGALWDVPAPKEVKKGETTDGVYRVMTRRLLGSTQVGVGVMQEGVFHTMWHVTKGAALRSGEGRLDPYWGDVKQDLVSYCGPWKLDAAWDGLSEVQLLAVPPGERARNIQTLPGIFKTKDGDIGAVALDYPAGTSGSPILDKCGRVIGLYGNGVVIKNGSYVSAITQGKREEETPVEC
T1 sequence (Q32ZE1 1421-1460): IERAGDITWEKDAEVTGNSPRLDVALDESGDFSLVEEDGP
T3 sequence (P29990 1398-1437): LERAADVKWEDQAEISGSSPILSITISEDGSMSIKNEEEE
T3 sequence (P29990 1476-1653): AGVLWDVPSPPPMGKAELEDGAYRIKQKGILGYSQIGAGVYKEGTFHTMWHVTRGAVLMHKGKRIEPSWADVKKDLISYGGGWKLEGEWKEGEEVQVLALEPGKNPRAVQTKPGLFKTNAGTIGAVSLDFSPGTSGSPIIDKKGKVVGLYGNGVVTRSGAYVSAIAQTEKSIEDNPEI
T2 sequence (P06935 1424-1463): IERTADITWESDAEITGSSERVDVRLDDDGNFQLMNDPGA
T2 sequence (P06935 1502-1679): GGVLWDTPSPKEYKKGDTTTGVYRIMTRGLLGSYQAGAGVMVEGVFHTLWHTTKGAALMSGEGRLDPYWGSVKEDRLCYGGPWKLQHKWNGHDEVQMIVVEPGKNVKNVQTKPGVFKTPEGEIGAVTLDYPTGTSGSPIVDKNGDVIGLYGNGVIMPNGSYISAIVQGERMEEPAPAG

CCCCCCCCCCCCCCCC(=O)N[C@@H](CCCCN)CN1CCC[C@H]1C(=O)N[C@@H](C)C(=O)N[C@H](CCc1ccccc1)C(N)=O [compound 118]
inhibition at 5 µM (human Trypsin; at 5 μM): < 10% | inhibition at 25 µM (human Trypsin; at 25 μM): < 20% | EC50 (ZIKV): ≤ 10 µM | IC50 (ZIKA protease): ≤ 25 µM | inhibition at 1 µM (ZIKA protease; at 1 μM): ≥ 10% | inhibition at 50 µM (ZIKA protease; at 50 μM): ≥ 65% | inhibition at 50 µM (WNV protease [1]): ≥ 25% | inhibition at 50 µM (DENV protease): ≥ 25% | IC50 (WNV protease [2]): ≤ 40 µM | inhibition at 5 µM (human Thrombin; at 5 μM): < 5% | EC50 (West Nile virus): ≤ 25 µM

CCCCCCCCCCCCCCCC(=O)N[C@@H](CCCNC(=N)N)C(=O)N[C@@H](C)C(=O)N[C@@H](CCc1ccccc1)C(N)=O [compound 51] (Palmitoyl-Arg-Ala-[hPhe]-NH2)
EC50 (ZIKV): ≤ 10 µM | IC50 (ZIKA protease): ≤ 25 µM | inhibition at 1 µM (ZIKA protease; at 1 μM): ≥ 10% | inhibition at 50 µM (ZIKA protease; at 50 μM): ≥ 65% | inhibition at 1 µM (DENV protease; at 1 μM): ≥ 20% | inhibition at 50 µM (DENV protease): ≥ 25% | EC50 (West Nile virus): ≤ 25 µM

CCCCCCCCCCCCCCCC(=O)N[C@@H](CCCCN)C(=O)N1CCC[C@H]1C(=O)N[C@@H](C)C(=O)N[C@@H](CCCCN)C(=O)C(N)=O [compound 10]
inhibition at 5 µM (human Trypsin; at 5 μM): < 10% | IC50 (ZIKA protease): ≤ 25 µM | inhibition at 50 µM (ZIKA protease; at 50 μM): ≥ 65% | inhibition at 50 µM (WNV protease [1]): ≥ 25% | inhibition at 50 µM (DENV protease): ≥ 25% | IC50 (WNV protease [2]): ≤ 40 µM | inhibition at 5 µM (human Thrombin; at 5 μM): < 5% | EC50 (West Nile virus): ≤ 25 µM

CCCCCCCCCCCCCCCC(=O)N[C@@H](CCCNC(=N)N)C(=O)N[C@@H](CC(N)=O)C(=O)N[C@@H](Cc1ccccc1)C(N)=O [compound 50] (Palmitoyl-Arg-Asn-Phe-NH2)
EC50 (ZIKV): ≤ 10 µM | IC50 (ZIKA protease): ≤ 25 µM | inhibition at 1 µM (ZIKA protease; at 1 μM): ≥ 10% | inhibition at 50 µM (ZIKA protease; at 50 μM): ≥ 65% | inhibition at 1 µM (DENV protease; at 1 μM): ≥ 20% | inhibition at 50 µM (DENV protease): ≥ 25% | EC50 (West Nile virus): ≤ 25 µM

CCCCCCCCCCCCCCCC(=O)N[C@H](CCCCN)C(=O)N1CCC[C@H]1C(=O)N[C@@H](C)C(=O)N[C@@H](Cc1c[nH]c2ccccc12)C(N)=O [compound 196] (Palmitoyl-[dK]PAW-NH2)
inhibition at 5 µM (human Trypsin; at 5 μM): < 10% | inhibition at 25 µM (human Trypsin; at 25 μM): < 20% | EC50 (ZIKV): ≤ 10 µM | IC50 (ZIKA protease): ≤ 25 µM | inhibition at 50 µM (ZIKA protease; at 50 μM): ≥ 65% | inhibition at 50 µM (WNV protease [1]): ≥ 25% | inhibition at 50 µM (DENV protease): ≥ 25% | IC50 (WNV protease [2]): ≤ 40 µM | inhibition at 5 µM (human Thrombin; at 5 μM): < 5% | EC50 (West Nile virus): ≤ 25 µM

CCCCCCCCCCCCCCCC(=O)N[C@@H](CCCNC(=N)N)C(=O)N[C@@H](CCC(N)=O)C(=O)N[C@@H](CCc1ccccc1)C(N)=O [compound 53] (Palmitoyl-Arg-Gln-[hPhe]-NH2)
EC50 (ZIKV): ≤ 10 µM | IC50 (ZIKA protease): ≤ 25 µM | inhibition at 50 µM (ZIKA protease; at 50 μM): ≥ 65% | inhibition at 50 µM (DENV protease): ≥ 25% | EC50 (West Nile virus): ≤ 25 µM

CCCCCCCCCCCCCCCC(=O)N[C@@H](CCCCN)C(=O)N[C@@H](C)C(=O)N[C@@H](C)C(=O)N[C@@H](CCCCN)C(=O)C(N)=O [compound 9]
IC50 (ZIKA protease): ≤ 25 µM | inhibition at 1 µM (ZIKA protease; at 1 μM): ≥ 10% | inhibition at 50 µM (ZIKA protease; at 50 μM): ≥ 65% | inhibition at 50 µM (WNV protease [1]): ≥ 25% | inhibition at 50 µM (DENV protease): ≥ 25% | IC50 (WNV protease [2]): ≤ 40 µM | inhibition at 5 µM (human Thrombin; at 5 μM): < 5% | EC50 (West Nile virus): ≤ 25 µM

CCCCCCCCCCCCCCCC(=O)N[C@H](CCCNC(=N)N)C(=O)N[C@@H](CCC(N)=O)C(=O)N[C@@H](Cc1ccccc1)C(N)=O [compound 44] (Palmitoyl-[dR]-Gln-Phe-NH2)
inhibition at 5 µM (human Trypsin; at 5 μM): < 10% | inhibition at 25 µM (human Trypsin; at 25 μM): < 20% | EC50 (ZIKV): ≤ 10 µM | IC50 (ZIKA protease): ≤ 25 µM | inhibition at 1 µM (ZIKA protease; at 1 μM): ≥ 10% | inhibition at 50 µM (ZIKA protease; at 50 μM): ≥ 65% | inhibition at 50 µM (WNV protease [1]): ≥ 25% | inhibition at 50 µM (DENV protease): ≥ 25% | IC50 (WNV protease [2]): ≤ 40 µM | inhibition at 5 µM (human Thrombin; at 5 μM): < 5% | EC50 (West Nile virus): ≤ 25 µM

CCCCCCCCCCCCCCCC(=O)N[C@@H](CCCCN)CC(=O)N[C@@H](C)C(=O)N[C@H](C)C(=O)N[C@@H](CCCCN)C(N)=O [compound 114] (Palmitoyl-[β3hK]A[dA]K-NH2)
inhibition at 5 µM (human Trypsin; at 5 μM): < 10% | inhibition at 25 µM (human Trypsin; at 25 μM): < 20% | EC50 (ZIKV): ≤ 10 µM | IC50 (ZIKA protease): ≤ 25 µM | inhibition at 1 µM (ZIKA protease; at 1 μM): ≥ 10% | inhibition at 50 µM (ZIKA protease; at 50 μM): ≥ 65% | inhibition at 1 µM (DENV protease; at 1 μM): ≥ 20% | inhibition at 50 µM (DENV protease): ≥ 25% | IC50 (WNV protease [2]): ≤ 40 µM | EC50 (West Nile virus): ≤ 25 µM

CCCCCCCCCCCCCCCC(=O)N[C@@H](CCCCN)C(=O)N[C@@H](C)C(=O)N[C@@H](C)C(=O)N[C@@H](CCCCN)C(=O)O [compound 189] (Palmitoyl-KAAK-OH)
inhibition at 5 µM (human Trypsin; at 5 μM): < 10% | inhibition at 25 µM (human Trypsin; at 25 μM): < 20% | EC50 (ZIKV): ≤ 10 µM | IC50 (ZIKA protease): ≤ 25 µM | inhibition at 1 µM (ZIKA protease; at 1 μM): ≥ 10% | inhibition at 50 µM (ZIKA protease; at 50 μM): ≥ 65% | inhibition at 50 µM (DENV protease): ≥ 25% | IC50 (WNV protease [2]): ≤ 40 µM | inhibition at 5 µM (human Thrombin; at 5 μM): < 5% | EC50 (West Nile virus): ≤ 25 µM

CCCCCCCCCCCCCCCC(=O)N[C@@H](CCCNC(=N)N)C(=O)N[C@@H](CCC(N)=O)C(=O)N[C@H](Cc1ccccc1)C(N)=O [compound 49] (Palmitoyl-Arg-Gln-[dF]-NH2)
EC50 (ZIKV): ≤ 10 µM | IC50 (ZIKA protease): ≤ 25 µM | inhibition at 1 µM (ZIKA protease; at 1 μM): ≥ 10% | inhibition at 50 µM (ZIKA protease; at 50 μM): ≥ 65% | inhibition at 1 µM (DENV protease; at 1 μM): ≥ 20% | inhibition at 50 µM (DENV protease): ≥ 25%

CCCCCCCCCCCCCCCC(=O)N[C@@H](CCCCN)C(=O)N[C@@H](C)C(=O)N[C@@H](C)C(=O)N[C@H](CCCCN)C(=O)c1ccccc1 [compound 136]
inhibition at 5 µM (human Trypsin): < 10% | inhibition at 25 µM (human Trypsin): < 20% | IC50 (ZIKA protease): ≤ 25 µM | inhibition at 1 µM (ZIKA protease): ≥ 10% | inhibition at 50 µM (ZIKA protease): ≥ 65% | inhibition at 50 µM (WNV protease [1]): ≥ 25% | inhibition at 50 µM (DENV protease): ≥ 25% | inhibition at 1 µM (DENV protease): ≥ 20% | IC50 (WNV protease [2]): ≤ 40 µM | inhibition at 5 µM (human Thrombin): < 5% | EC50 (West Nile virus): ≤ 25 µM

CCCCCCCCCCCCCCCC(=O)N[C@@H](CCCCC(=N)N)C(=O)N[C@@H](Cc1c[nH]cn1)C(N)=O [compound 170]
inhibition at 5 µM (human Trypsin; at 5 μM): < 10% | inhibition at 25 µM (human Trypsin; at 25 μM): < 20% | EC50 (ZIKV): ≤ 10 µM | IC50 (ZIKA protease): ≤ 25 µM | inhibition at 50 µM (ZIKA protease; at 50 μM): ≥ 65% | inhibition at 50 µM (WNV protease [1]): ≥ 25% | inhibition at 50 µM (DENV protease): ≥ 25% | IC50 (WNV protease [2]): ≤ 40 µM | inhibition at 5 µM (human Thrombin; at 5 μM): < 5% | EC50 (West Nile virus): ≤ 25 µM

CCCCCCCCCCCCCCCC(=O)N[C@@H](C)C(=O)N[C@@H](CCCNC(=N)N)C(=O)N[C@@H](CCC(N)=O)C(=O)N[C@@H](Cc1ccccc1)C(N)=O [compound 54] (Palmitoyl-ARQF-NH2)
EC50 (ZIKV): ≤ 10 µM | IC50 (ZIKA protease): ≤ 25 µM | inhibition at 1 µM (ZIKA protease; at 1 μM): ≥ 10% | inhibition at 50 µM (ZIKA protease; at 50 μM): ≥ 65% | inhibition at 50 µM (DENV protease): ≥ 25% | EC50 (West Nile virus): ≤ 25 µM
